Laboratory results: the supplement of paper PMC8617591

Experiments:
[1] = test system: Mycobacterium tuberculosis Erdman (autoluminescent); assay: total FIC50 (Loewe) at 50% inhibition, three-drug combination (log2); higher = more antagonistic
Description: (§1)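 DiaMOND equipotent three-drug combination dose responses (10 doses, 1.5- or 2-fold spacing, centred on IC90) against autoluminescent M. tuberculosis Erdman in 8 in vitro models. Read-out is OD600, or luminescence for the intracellular and dormancy models, normalised to untreated wells. Hill-fit Einf, AUC25 and GRinf are potency metrics; FIC50 and FIC90 are total Loewe fractional inhibitory concentrations as log2 (negative = synergy).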

[2] = test system: Mycobacterium tuberculosis Erdman (autoluminescent); assay: total FIC90 (Loewe) at 90% inhibition, three-drug combination (log2); higher = more antagonistic
Description: as §1

[3] = test system: Mycobacterium tuberculosis Erdman (autoluminescent); assay: Einf, fitted maximum growth inhibition of three-drug combination (fraction); higher = stronger maximal inhibition
Description: as §1

[4] = test system: Mycobacterium tuberculosis Erdman (autoluminescent); assay: AUC25, normalised area under dose response up to IC25 (three-drug combination) (fraction (0-1)); higher = more potent at low dose
Description: as §1

[5] = test system: Mycobacterium tuberculosis Erdman (autoluminescent); assay: GRinf, maximum normalised growth rate inhibition (three-drug combination) (unitless (-1 to 1)); higher = less effect (negative = killing)
Description: as §1

CC(C)/N=c1\cc2n(-c3ccc(Cl)cc3)c3ccccc3nc-2cc1Nc1ccc(Cl)cc1 [clofazimine] + CC[C@@H](CO)NCCN[C@@H](CC)CO [ethambutol] + NC(=O)c1cnccn1 [pyrazinamide]
Conditions | AUC25, [4] | Einf, [3] | GRinf, [5] | total FIC50, [1] | total FIC90, [2]
in vitro model: acidic pH 5.7, time point: constant (~7 days, model-specific) | 0.112 | 0.725 | -0.183 | -0.812 | –
in vitro model: acidic pH 5.7, time point: terminal (~4-5 doublings, model-specific) | 0.0918 | 0.954 | -0.232 | 0.156 | -0.781
in vitro model: intracellular J774, time point: constant = terminal | – | 1 | -0.398 | – | -0.408

Conditions | AUC25, [4] | Einf, [3] | GRinf, [5] | total FIC50, [1] | total FIC90, [2]
in vitro model: butyrate, time point: constant (~7 days, model-specific) | 0.1 | 0.913 | -0.122 | -0.0529 | –
in vitro model: butyrate, time point: terminal (~4-5 doublings, model-specific) | 0.075 | 0.953 | -0.0327 | 0.0941 | -0.127
in vitro model: cholesterol 0.05 mM, time point: constant (~7 days, model-specific) | 0.147 | 0.758 | -0.487 | – | –
in vitro model: cholesterol 0.05 mM, time point: terminal (~4-5 doublings, model-specific) | 0.123 | 0.86 | -0.157 | 1.39 | –
in vitro model: cholesterol-high 0.2 mM, time point: constant (~7 days, model-specific) | 0.1 | 0.955 | -0.718 | 0.509 | –
in vitro model: cholesterol-high 0.2 mM, time point: terminal (~4-5 doublings, model-specific) | 0.0851 | 0.998 | -0.902 | 0.581 | 0.758
in vitro model: dormancy (butyrate + nitrate, low O2), time point: constant (~7 days, model-specific) | 0.0979 | 0.826 | 0.349 | -0.344 | –
in vitro model: dormancy (butyrate + nitrate, low O2), time point: terminal (~4-5 doublings, model-specific) | 0.124 | 0.999 | -0.842 | 0.325 | 1.52
in vitro model: standard 7H9 glycerol, time point: constant = terminal | 0.109 | 0.939 | -0.163 | 0.315 | –
in vitro model: valerate, time point: constant (~7 days, model-specific) | 0.117 | 0.792 | 0.253 | 0.627 | –
in vitro model: valerate, time point: terminal (~4-5 doublings, model-specific) | 0.0625 | 0.898 | 0.205 | 0.395 | –

CC(C)/N=c1\cc2n(-c3ccc(Cl)cc3)c3ccccc3nc-2cc1Nc1ccc(Cl)cc1 [clofazimine] + CC[C@@H](CO)NCCN[C@@H](CC)CO [ethambutol] + NNC(=O)c1ccncc1 [isoniazid]
Conditions | AUC25, [4] | Einf, [3] | GRinf, [5] | total FIC50, [1] | total FIC90, [2]
in vitro model: acidic pH 5.7, time point: constant (~7 days, model-specific) | 0.0868 | 0.732 | -0.0169 | 0.498 | –
in vitro model: acidic pH 5.7, time point: terminal (~4-5 doublings, model-specific) | 0.0876 | 0.955 | -0.0829 | 0.678 | 0.618
in vitro model: intracellular J774, time point: constant = terminal | – | 0.988 | -0.375 | – | -0.505

Conditions | AUC25, [4] | Einf, [3] | GRinf, [5] | total FIC50, [1] | total FIC90, [2]
in vitro model: butyrate, time point: constant (~7 days, model-specific) | 0.0914 | 0.946 | -0.098 | 0.523 | –
in vitro model: butyrate, time point: terminal (~4-5 doublings, model-specific) | 0.0804 | 0.976 | -0.12 | 0.504 | 0.513
in vitro model: cholesterol 0.05 mM, time point: constant (~7 days, model-specific) | 0.117 | 0.751 | -0.165 | 0.257 | –
in vitro model: cholesterol 0.05 mM, time point: terminal (~4-5 doublings, model-specific) | 0.126 | 0.852 | -0.135 | 1.57 | –
in vitro model: cholesterol-high 0.2 mM, time point: constant (~7 days, model-specific) | 0.0601 | 0.951 | -0.518 | 0.899 | –
in vitro model: cholesterol-high 0.2 mM, time point: terminal (~4-5 doublings, model-specific) | 0.0945 | 0.998 | -0.932 | 0.577 | 0.985
in vitro model: dormancy (butyrate + nitrate, low O2), time point: constant (~7 days, model-specific) | 0.0906 | 0.807 | 0.507 | 0.0627 | –
in vitro model: dormancy (butyrate + nitrate, low O2), time point: terminal (~4-5 doublings, model-specific) | 0.132 | 0.998 | -0.444 | -0.121 | 0.753
in vitro model: standard 7H9 glycerol, time point: constant = terminal | 0.118 | 0.954 | -0.121 | -0.209 | –
in vitro model: valerate, time point: constant (~7 days, model-specific) | 0.128 | 0.873 | 0.0565 | 0.974 | –
in vitro model: valerate, time point: terminal (~4-5 doublings, model-specific) | 0.0871 | 0.919 | 0.0494 | 0.446 | -0.137

CC(C)/N=c1\cc2n(-c3ccc(Cl)cc3)c3ccccc3nc-2cc1Nc1ccc(Cl)cc1 [clofazimine] + CC[C@@H](CO)NCCN[C@@H](CC)CO [ethambutol] + O=[N+]([O-])c1cn2c(n1)OC[C@@H](OCc1ccc(OC(F)(F)F)cc1)C2 [pretomanid]
Conditions | AUC25, [4] | Einf, [3] | GRinf, [5] | total FIC50, [1] | total FIC90, [2]
in vitro model: acidic pH 5.7, time point: constant (~7 days, model-specific) | 0.129 | 0.803 | -0.436 | 0.449 | –
in vitro model: acidic pH 5.7, time point: terminal (~4-5 doublings, model-specific) | 0.0966 | 0.954 | -0.21 | 0.46 | 0.859
in vitro model: intracellular J774, time point: constant = terminal | – | 0.987 | -0.321 | – | -1.25

Conditions | AUC25, [4] | Einf, [3] | GRinf, [5] | total FIC50, [1] | total FIC90, [2]
in vitro model: butyrate, time point: constant (~7 days, model-specific) | 0.103 | 0.962 | -0.142 | 0.411 | –
in vitro model: butyrate, time point: terminal (~4-5 doublings, model-specific) | 0.0799 | 0.981 | -0.138 | 0.442 | 0.382
in vitro model: cholesterol 0.05 mM, time point: constant (~7 days, model-specific) | 0.136 | 0.718 | -0.577 | – | –
in vitro model: cholesterol 0.05 mM, time point: terminal (~4-5 doublings, model-specific) | 0.131 | 0.84 | -0.0173 | 2.15 | –
in vitro model: cholesterol-high 0.2 mM, time point: constant (~7 days, model-specific) | 0.102 | 0.928 | -0.371 | 1.08 | –
in vitro model: cholesterol-high 0.2 mM, time point: terminal (~4-5 doublings, model-specific) | 0.0873 | 0.994 | -0.857 | 0.97 | 1.51
in vitro model: dormancy (butyrate + nitrate, low O2), time point: constant (~7 days, model-specific) | 0.106 | 0.824 | 0.446 | -0.084 | –
in vitro model: dormancy (butyrate + nitrate, low O2), time point: terminal (~4-5 doublings, model-specific) | 0.127 | 0.99 | -0.258 | -0.114 | 0.801
in vitro model: standard 7H9 glycerol, time point: constant = terminal | 0.126 | 0.956 | -0.273 | -0.284 | –
in vitro model: valerate, time point: constant (~7 days, model-specific) | 0.14 | 0.867 | -0.308 | 0.805 | –
in vitro model: valerate, time point: terminal (~4-5 doublings, model-specific) | 0.0932 | 0.92 | 0.0599 | 0.355 | 0.973
